Laboratory results reported in the NIST ThermoML archive (doi:10.1016/j.tca.2014.06.017).
± gives the expanded uncertainty stated by the source.

Settings: Crystal; DTA

Normal melting temperature: 162 ± 11 °C
SMILES: OC[C@@H](O)[C@@H](O)[C@H](O)[C@H](O)CO [D-mannitol]
